The subject of this experiment is BDF1 mice, colon carcinoma 38 sc, T/C %. In words: NCI In Vivo Anticancer Drug Screen. Data for tumor model Colon Carcinoma 38 (subcutaneous) in B6D2F1 (BDF1) mice. To be noted: endpoint: median tumor weight (est.), higher = larger tumour. A digest of the protocol: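 Mice with transplanted tumors are treated with compound or vehicle. Survival or tumor size is then measured in both groups. The ratio of treated to control gives the reported figure.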

Setting [1] is: dose: 50.0 mg/kg/injection, schedule: Q07DX002 (ip), vehicle: saline with Tween-80.
[2] abbreviates: dose: 100.0 mg/kg/injection, schedule: Q07DX002 (ip), vehicle: saline with Tween-80.
Where [3] appears, read: dose: 200.0 mg/kg/injection, schedule: Q07DX002 (ip), vehicle: saline with Tween-80.
Where [4] appears, read: dose: 12.5 mg/kg/injection, schedule: Q07DX002 (ip), vehicle: saline with Tween-80.
Where [5] appears, read: dose: 25.0 mg/kg/injection, schedule: Q07DX002 (ip), vehicle: saline with Tween-80.
Setting [6] is: dose: 50.0 mg/kg/injection, schedule: Q07DX002 (ip), vehicle: Klucel (hydroxypropylcellulose) (HPC).
The mark [7] stands for this setting: dose: 100.0 mg/kg/injection, schedule: Q07DX002 (ip), vehicle: Klucel (hydroxypropylcellulose) (HPC).
Setting [8] is: dose: 200.0 mg/kg/injection, schedule: Q07DX002 (ip), vehicle: Klucel (hydroxypropylcellulose) (HPC).
The mark [9] stands for this setting: dose: 400.0 mg/kg/injection, schedule: Q07DX002 (ip), vehicle: Klucel (hydroxypropylcellulose) (HPC).
The mark [10] stands for this setting: dose: 800.0 mg/kg/injection, schedule: Q07DX002 (ip), vehicle: Klucel (hydroxypropylcellulose) (HPC).
The mark [11] stands for this setting: dose: 100.0 mg/kg/injection, schedule: Q07DX002 (ip), vehicle: saline.
The mark [12] stands for this setting: dose: 2.5 mg/kg/injection, schedule: Q07DX002 (ip), vehicle: saline.
The mark [13] stands for this setting: dose: 5.0 mg/kg/injection, schedule: Q07DX002 (ip), vehicle: saline.
Where [14] appears, read: dose: 10.0 mg/kg/injection, schedule: Q07DX002 (ip), vehicle: saline.

The values below come from PubChem BioAssay AID212 (DTP/NCI, 2004).

Several values for one entry are separate records, joined by “and”; a condition that tells them apart may be missing. Equal values may be shown once. Inconclusive results are not listed.

As for `CC1(C)CC2(C)OC2C2(C1)N=NC(=Nc1ccccc1)O2` (stereo not given), the T/C reads like this: under setting [1], 119 % of control; under setting [2], 101 % of control; under setting [3], 213 % of control.
Regarding `COC1C(O)CC(OC2CC(Oc3cc4cc5c(c(O)c4c(O)c3C)C(=O)[C@@H](OC3CC(OC4CC(OC6CC(C)(O)C(OC(C)=O)C(C)O6)C(O)C(C)O4)C(O)C(C)O3)[C@H]([C@H](OC)C(=O)[C@@H](O)[C@@H](C)O)C5)OC(C)C2OC(C)=O)OC1C` (stereo not given in full), the T/C (dose: 0.04 mg/kg/injection, schedule: Q07DX002 (ip), vehicle: Klucel (hydroxypropylcellulose) (HPC)) was 109 % of control and 105 % of control; the T/C (dose: 0.08 mg/kg/injection, schedule: Q07DX002 (ip), vehicle: Klucel (hydroxypropylcellulose) (HPC)) is 207 % of control and 76 % of control; the T/C (dose: 0.16 mg/kg/injection, schedule: Q07DX002 (ip), vehicle: Klucel (hydroxypropylcellulose) (HPC)) was 71 % of control.
Take `Nc1c(C(=O)O)[nH]c(=O)[nH]c1=O`: the T/C is, setting by setting: under setting [4], 104 % of control; under setting [5], 100 % of control; under setting [1], 80 % of control; under setting [3], 123 % of control.
Take `Cc1c(-c2ccc(C3CCCCC3)cc2)nc2ccc(F)cc2c1C(=O)O`: the T/C by setting is: under setting [6], 89 % of control; under setting [7], 80 % of control; under setting [8], 116 % of control; under setting [9], 86 % of control; (dose: 400.0 mg/kg/injection, schedule: Q07DX002 (ip), vehicle: Klucel + Tween-80) 120 % of control; under setting [10], 107 % of control. Where the note is “dose: 800.0 mg/kg/injection, schedule: Q07DX002 (ip), vehicle: Klucel + Tween-80”, the T/C is 80 % of control.
For the compound `Cc1ccc(C2NC(=S)N3C(c4ccc(C)cc4)NC(=S)N23)cc1` (stereo not given), the T/C is, setting by setting: (dose: 25.0 mg/kg/injection, schedule: Q07DX002 (ip), vehicle: Klucel (hydroxypropylcellulose) (HPC)) 94 % of control; under setting [6], 79 % of control; under setting [7], 83 % of control; under setting [8], 88 % of control; under setting [9], 89 % of control; under setting [10], 60 % of control.
With `NC(=O)C#CC(N)=O`, the T/C (dose: 0.12 mg/kg/injection, schedule: Q07DX002 (ip), vehicle: Klucel (hydroxypropylcellulose) (HPC)) was 88 % of control; the T/C (dose: 0.23 mg/kg/injection, schedule: Q07DX002 (ip), vehicle: Klucel (hydroxypropylcellulose) (HPC)) was 97 % of control; the T/C (dose: 0.45 mg/kg/injection, schedule: Q07DX002 (ip), vehicle: Klucel (hydroxypropylcellulose) (HPC)) is 85 % of control; the T/C (dose: 0.9 mg/kg/injection, schedule: Q07DX002 (ip), vehicle: Klucel (hydroxypropylcellulose) (HPC)) is 91 % of control.
For `CCOC(=O)C(C)(C)Oc1ccc(Cl)cc1`, the T/C under setting [4] is 60 % of control; the T/C under setting [1] was 94 % of control and 100 % of control; the T/C under setting [3] is 110 % of control; the T/C (dose: 400.0 mg/kg/injection, schedule: Q07DX002 (ip), vehicle: saline with Tween-80) is 86 % of control.
For `CC1(C)COCN1COCCOCN1COCC1(C)C`, the T/C is, setting by setting: (dose: 12.5 mg/kg/injection, schedule: Q07DX002 (ip), vehicle: saline) 87 % of control; (dose: 25.0 mg/kg/injection, schedule: Q07DX002 (ip), vehicle: saline) 109 % of control and 112 % of control; (dose: 50.0 mg/kg/injection, schedule: Q07DX002 (ip), vehicle: saline) 80 % of control and 95 % of control; under setting [11], 81 % of control and 88 % of control.
As for `CC(O)CCC(=O)c1ccoc1` (stereo not given), the T/C is 150 % of control (dose: 0.63 mg/kg/injection, schedule: Q07DX002 (ip), vehicle: saline); 42 % of control (dose: 1.25 mg/kg/injection, schedule: Q03HX006 (ip), vehicle: saline); 64 % of control (dose: 2.5 mg/kg/injection, schedule: Q03HX006 (ip), vehicle: saline); 166 % of control under setting [12]; 58 % of control (dose: 5.0 mg/kg/injection, schedule: Q03HX006 (ip), vehicle: saline); 150 % of control under setting [13]. Also, the T/C under setting [14] is 185 % of control.
Consider `CCn1cnc2c(=S)nc[nH]c21`, for which the T/C is 87 % of control under setting [5], 64 % of control under setting [1], 57 % of control under setting [2] and 21 % of control under setting [3].
Consider `CC(C)C(N)C(=O)Nc1nncs1` (stereo not given), for which the T/C is, setting by setting: under setting [11], 108 % of control and 98 % of control; (dose: 200.0 mg/kg/injection, schedule: Q07DX002 (ip), vehicle: saline) 68 % of control and 88 % of control; (dose: 400.0 mg/kg/injection, schedule: Q07DX002 (ip), vehicle: saline) 45 % of control and 48 % of control.
`CC(C)CCCCCCCCCCCCC(=O)NCC(=O)NC1C(C)OC(Nc2ncnc3nc[nH]c23)C(O)C1O` (stereo not given): under “dose: 0.5 mg/kg/injection, schedule: Q07DX002 (ip), vehicle: distilled water + Tween-80”, the T/C was 105 % of control.
Regarding `CCN(CC)CC(C)(C)C(=O)/C=C/c1ccccc1`, the T/C by setting is: (dose: 62.5 mg/kg/injection, schedule: Q07DX002 (ip), vehicle: saline) 102 % of control; (dose: 125.0 mg/kg/injection, schedule: Q07DX002 (ip), vehicle: saline) 52 % of control.
Consider `CC1(C)OCC(CO)(Nc2nc(N3CC3)nc(N3CC3)n2)CO1`, for which the T/C (dose: 1.25 mg/kg/injection, schedule: Q07DX002 (ip), vehicle: saline) was 72 % of control; the T/C (dose: 1.25 mg/kg/injection, schedule: Q07DX003 (ip), vehicle: saline) is 166 % of control; the T/C under setting [12] was 75 % of control; the T/C (dose: 2.5 mg/kg/injection, schedule: Q07DX003 (ip), vehicle: saline) is 111 % of control; the T/C under setting [13] is 65 % of control; the T/C (dose: 5.0 mg/kg/injection, schedule: Q07DX003 (ip), vehicle: saline) is 49 % of control. In addition, the T/C under setting [14] is 15 % of control.
On to `C=CC(=O)N1CN(C(=O)C=C)CN(C(=O)C=C)C1`, for which the T/C by setting is: (dose: 1.56 mg/kg/injection, schedule: Q07DX002 (ip), vehicle: saline with Tween-80) 82 % of control; (dose: 1.56 mg/kg/injection, schedule: Q07DX002 (ip), vehicle: saline) 74 % of control; (dose: 3.12 mg/kg/injection, schedule: Q07DX002 (ip), vehicle: saline with Tween-80) 85 % of control; (dose: 3.12 mg/kg/injection, schedule: Q07DX002 (ip), vehicle: saline) 110 % of control; (dose: 6.25 mg/kg/injection, schedule: Q07DX002 (ip), vehicle: saline with Tween-80) 104 % of control; (dose: 6.25 mg/kg/injection, schedule: Q07DX002 (ip), vehicle: saline) 90 % of control. Moreover, the T/C under setting [4] is 120 % of control.
As to `Nc1cc(Cl)c2[nH]cnc2n1`, the T/C is 86 % of control (dose: 12.5 mg/kg/injection, schedule: Q07DX002 (ip), vehicle: water); 119 % of control (dose: 25.0 mg/kg/injection, schedule: Q07DX002 (ip), vehicle: water); 99 % of control (dose: 50.0 mg/kg/injection, schedule: Q07DX002 (ip), vehicle: distilled water + Tween-80); 82 % of control (dose: 50.0 mg/kg/injection, schedule: Q07DX002 (ip), vehicle: water); 76 % of control (dose: 100.0 mg/kg/injection, schedule: Q07DX002 (ip), vehicle: distilled water + Tween-80); 101 % of control (dose: 100.0 mg/kg/injection, schedule: Q07DX002 (ip), vehicle: water). Also, the T/C is 108 % of control (dose: 200.0 mg/kg/injection, schedule: Q07DX002 (ip), vehicle: distilled water + Tween-80); 81 % of control (dose: 200.0 mg/kg/injection, schedule: Q07DX002 (ip), vehicle: water); 81 % of control (dose: 400.0 mg/kg/injection, schedule: Q07DX002 (ip), vehicle: water).
